# Source: publication PMC6020753 (Chemical Science, 2016)
# Target: T1, NP1 (Rhodnius prolixus, UniProt Q26239)
# T1 construct: recombinant in E. coli BL21(DE3), reconstituted ferriheme b protein, two Cys-Cys disulfides
# Experiment: X-band EPR of nitrite complex
# Assay type: binding
# Conditions: 300 mM NaNO2, 100 mM HEPES pH 7.2, 25% glycerol, 10 K; heme iron ligand
# T1 sequence (Q26239 24-207): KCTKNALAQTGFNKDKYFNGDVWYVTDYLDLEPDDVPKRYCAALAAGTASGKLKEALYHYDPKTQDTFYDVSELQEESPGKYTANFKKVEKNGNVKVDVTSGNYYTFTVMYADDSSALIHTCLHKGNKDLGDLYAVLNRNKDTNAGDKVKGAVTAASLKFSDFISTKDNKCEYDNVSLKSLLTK
structure (smiles),measurement,value
O=NO [nitrite],X-band EPR of nitrite complex,NP1[NO2^–] also has a HALS signal with a similar ratio
